In experiment [1] the test system is rat carrageenan paw edema. The experiment can be described thus: rat carrageenan paw edema assay. The format is in vivo, rat (male Sprague-Dawley). Particulars: for ED50: Rattus norvegicus, po, 3 h, read-out: Oral ED50 (95% C.L.); for % Inhibition of edema at 50 mg/kg (peroral): 1 hour prior to carrageenan, edema at 3 hours. How it is done: The compounds of the invention are tested in the rat carrageenan paw edema assay to determine their ability to inhibit the acute inflammatory response. This assay is carried out as follows: 140-180 gm male Sprague-Dawley rats, in groups of 6 animals, are injected subcutaneously in the right paw with 0.1 ml of 1% carrageenan at zero time. Mercury plethysmographic readings (ml) of the paw are made at zero time and 3 hours later. Test compounds are suspended or dissolved in 0.5% methylcellulose and given perorally 1 hour prior to carrageenan administration. The increase in paw volume (edema in ml.) produced by the carrageenan is measured. […] Unpaired Student's t-test is used to determine statistical significance.
On the technique in general: Carrageenan injected into the paw causes an acute inflammation.

The test system of experiment [2] is IL 1-induced release of neutral protease from rabbit articular chondrocytes. The experiment can be described thus: inhibition of IL 1-induced release of neutral protease from rabbit articular chondrocytes (azocoll neutral protease assay). The format is cell-based. To be noted: Oryctolagus cuniculus, Chondrocyte, human IL 1, 24 h, ± S.D., read-out: % Inhibition of Protease Secretion. How it is done:
The ability of the compounds of the inventions to inhibit interleukin 1 is measured by the ability of the test compounds to inhibit the IL 1-induced release of neutral protease from rabbit articular chondrocytes.
This assay is carried out as follows:
Isolation of rabbit chondrocytes:
Male New Zealand White rabbits are anesthetized with 50 mg/kg of ketamine (i.m.) and killed by an intracardiac injection of 3 mls. of Nembutal. The knee joints of both legs are resected and the articular surfaces are exposed. Cartilage slices are obtained using a scalpel and are placed in a tissue culture dish (100 mm diameter) containing 10 mls of Hank's balanced salt solution (HBSS). The chondrocytes within the cartilage slices are then liberated by a series of enzyme digestions. The slices are incubated for 10 min. at 37° C. in 0.05% hyaluronidase (Sigma H-3884), rinsed with HBSS and incubated with 0.2% trypsin (Sigma T-2395) for 10 min. at 37° C. The slices are rinsed again and incubated for 10 mins. at 37° C. with 1.2% collagenase (Sigma C-5138). The slices are then rinsed again with HBSS and resuspended in 10 ml of Ham's F-12 medium containing 10% fetal bovine calf serum (FCS) and 0.2 % collagenase and incubated overnight at 37° C. in a 5% CO2 incubator. The next day, the medium containing the digested cartilage fragments and liberated chondrocytes is transferred to a 15 ml centrifuge tube and the cells are collected by centrifugation and washed twice and resuspended in Ham's F-12 medium. The cells are then plated into 24-well tissue culture plates (2×10^5 cells/well) and incubated at 37° C. until confluent (usually 4-6 days).
Stimulation of chondrocytes and drug treatment:
The confluent chondrocytes are rinsed twice with serum-free Ham's F-12 medium and 1 ml is added to each well. Fifty μl of purified human IL 1 (100 Units/ml; Genzyme Corporation, Boston, MA) is then added to stimulate these cells to secrete neutral protease. To measure drug effects, the cells are treated with test compound 10 min. prior to addition of IL 1. The standard screening dose is 10 μM. Twenty-four hours after IL 1 stimulation, supernatant fluids are collected and assayed for neutral protease activity.
The neutral protease activity of chondrocyte supernatant fluids is determined by their ability to degrade an insoluble protease substrate, azocoll (Sigma). Supernatants are treated for 10 min. at room temperature with 350 μM p-aminophenylmurcuric acetate to activate the latent enzyme. Three hundred μl of supernatant is then mixed with 500 μl of a 20 mg/ml suspension of azocoll and incubated at 37° C. for 18-24 hrs. with gentle rocking. The mixtures are centrifuged and the amount of substrate hydrolyzed is determined by measuring the absorbance of the supernatant at 520 nm.
Drug effects are calculated as the % change in enzyme activity (absorbance)by supernatants from drug-treated chondrocytes relative to enzyme activity of supernatants from vehicle-treated chondrocytes as follows:
% Inhibition of Protease Secretion= [formula]

Bounds are passed on as bounds.

Broadly, the ED50 is the dose at which the effect has come halfway, by size or by number of responders. `CC(=O)Oc1ccccc1C(=O)O` [Aspirin, reference compound]: in experiment [1], the ED50 stood at 145 mg/kg.
Usually inhibition stands for the share of the control response that was lost under treatment. Take `N#Cc1ccc(NCCc2nc3cc(Cl)ccc3c3nn(-c4ccccc4)cc23)cc1` [Example 1, 4-[[2-(7-Chloro-2-phenyl-2H-pyrazolo-[4,3-c]quinolin-4-yl)ethyl]amino]benzonitrile]: in experiment [2], the inhibition at 0.1 µM was found to be 60 ± 13%, the inhibition at 1 µM is 75 ± 5% and the inhibition at 10 µM turned out to be 88 ± 2%. In addition, the “% Inhibition of edema at 50 mg/kg (peroral)” value in experiment [1] is given as 38%.
Taken in the same sequence, the figures for `CCOC(=O)c1ccc(NCCc2nc3cc(Cl)ccc3c3nn(-c4ccccc4)cc23)cc1` [Example 2, 4-[[2-(7-Chloro-2-phenyl-2H-pyrazolo[4,3-c]quinolin-4-yl)ethyl]amino]benzoic acid ethyl ester] were 41 ± 10%, 70 ± 4%, 85 ± 3% and 32%.
In the case of `Clc1ccc2c(c1)nc(CCNc1ncccn1)c1cn(-c3ccccc3)nc12` [Example 3, 7-Chloro-2-phenyl-N-(2-pyrimidinyl)-2H-pyrazolo[4,3-c]quinoline-4-ethanamine], in experiment [2], the inhibition at 1 µM came out at 22% and the inhibition at 10 µM is 79 ± 29%.
In the case of `Clc1ccc2c(c1)nc(CCNc1ccc3ccccc3n1)c1cn(-c3ccccc3)nc12` [Example 4, 7-Chloro-2-phenyl-N-(2-quinolinyl)-2H-pyrazolo[4,3-c]quinoline-4-ethanamine], in experiment [2], the inhibition at 10 µM was at most 20%.
On the same count and under the same terms, with `Fc1ccc(NCCc2nc3cc(Cl)ccc3c3nn(-c4ccccc4)cc23)cc1` [Example 5, 7-Chloro-N-(4-fluorophenyl)-2-phenyl-2H-pyrazolo[4,3-c]quinoline-4-ethanamine] the figure was 14%; with `Clc1ccc2c(c1)nc(CCNc1cnccn1)c1cn(-c3ccccc3)nc12` [Example 6, 7-Chloro-2-phenyl-N-(2-pyrazinyl)-2H-pyrazolo-[4,3-c]quinoline-4-ethanamine, hemihydrate], 60%.
On to `CCOC(=O)c1ccc(NCCc2nc3ccccc3c3nn(-c4ccccc4)cc23)cc1` [Example 7, 4-[[2-(2-phenyl-2H-pyrazolo[4,3-c]quinolin-4-yl)ethyl]amino]benzoic acid ethyl ester], for which, in experiment [2], the inhibition at 10 µM was determined as 83%.
Still for that read-out and setting: the same measure for `N#Cc1ccc(N(CCc2nc3cc(Cl)ccc3c3nn(-c4ccccc4)cc23)C(=O)Nc2ccccc2)cc1` [Example 8, N-[2-(7-chloro-2-phenyl-2H-pyrazolo[4,3-c]quinolin-4-yl)ethyl]-N-(4-cyanophenyl)-N'-phenylurea]: at most 20%; for `CCOC(=O)c1ccc(N(CCc2nc3cc(Cl)ccc3c3nn(-c4ccccc4)cc23)C(=O)Nc2ccccc2)cc1` [Example 9]: 49%.
The same measure, in the same setting: with `N#Cc1ccc(N(CCc2nc3cc(Cl)ccc3c3nn(-c4ccccc4)cc23)C(=O)Nc2ccc(Cl)cc2)cc1` [Example 10, N'-(4-Chlorophenyl)-N-[2-(7-chloro-2-phenyl-2H-pyrazolo[4,3-c]quinolin-4-yl)ethyl]-N-(4-cyanophenyl)urea] the figure was 51%; with `CCOC(=O)c1ccc(N(CCc2nc3cc(Cl)ccc3c3nn(-c4ccccc4)cc23)C(=O)Nc2ccc(Cl)cc2)cc1` [Example 11, 4-[[[(4-chlorophenyl)amino]carbonyl][2-(7-chloro-2-phenyl-2H-pyrazolo[4,3-c]quinolin-4-yl)ethyl]amino]benzoic acid ethyl ester, hydrate], 47%; with `CS(=O)(=O)c1ccc(NCCc2nc3cc(Cl)ccc3c3nn(-c4ccccc4)cc23)cc1` [Example 12, 7-Chloro-N-[(4-methylsulfonyl)phenyl]-2-phenyl-2H-pyrazolo[4,3-c]quinoline-4-ethanamine], 41%.
In the case of `COc1ccc2c(c1)c(CC(=O)O)c(C)n2C(=O)c1ccc(Cl)cc1` [Indomethacin, reference compound], in experiment [1], the ED50 is 3.7 mg/kg.

For the origin of these results see patent US4748246A, “Pyrazolo(4,3-c)quinolines” (American Home Products Corporation, priority 1987, dated 1988).
